Each structure is given as a SMILES string. pIC50: −log10 of the molar value.

For this assay, the target named is HSD17B13 (Homo sapiens (Human), UniProt Q7Z5P4). In words: LC/MS estrone detection assay: conversion of estradiol to estrone by HSD17B13. In kind it is biochemical. As to conditions: 4 μM estradiol, 6 mM NAD+, 30 nM HSD17B13 enzyme (E. coli expressed His-tagged), 2 hours at 26.5° C. The protocol: The liquid chromatography/mass spectrometry (LC/MS) estrone detection assay monitors the conversion of estradiol to estrone by HSD17B13. This assay was undertaken in a 96wp format (Eppendorf deep well Plate 96/500) in an 80 μl reaction volume containing: 4 μM of Estradiol (E2; Cayman; Ser. No. 10/006,315), 6 mM NAD+(Sigma; #N0623) and 30 nM HSD17B13 enzyme (in-house; E. coli expressed His-tagged, purified, soluble protein) in a reaction containing […] potassium phosphate buffer pH 7.4, with 0.5% vehicle (DMSO). Reactions were incubated for 2 hours at 26.5° C., and estradiol (E2) conversion to estrone (E1) was quantitated by LC-MS/MS based analyte detection for both E2 and E1 using LCMS grade reagents.
Chain of HSD17B13 (Q7Z5P4 20-300): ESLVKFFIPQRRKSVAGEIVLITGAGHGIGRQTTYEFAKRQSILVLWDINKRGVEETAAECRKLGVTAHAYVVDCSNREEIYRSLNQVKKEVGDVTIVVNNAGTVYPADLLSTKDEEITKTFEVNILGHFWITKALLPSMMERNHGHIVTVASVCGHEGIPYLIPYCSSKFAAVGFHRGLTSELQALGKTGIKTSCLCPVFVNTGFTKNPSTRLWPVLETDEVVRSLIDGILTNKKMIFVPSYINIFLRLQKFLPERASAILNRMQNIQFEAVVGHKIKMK
Reactions were terminated by the addition of two volumes of acetonitrile (MeCN; LCMS grade; CAS #75/05/8) containing deuterated (D4)-E1 used as internal standard (Clear Synth; #CS-T-54273; 500 ng/mL final concentration). Samples were applied to pre-prepared Bond Elut-C18 extraction cartridges (3 mL; Agilent; Ser. No. 12/102,028), washed and eluted in MeCN. Eluates were dried under nitrogen and re-suspended in 60% methanol (LCMS grade methanol; CAS #67/56/1) before submission for analysis. Aqueous linearity for E2 and E1 were included for quantification.
Analysis of samples was undertaken on a XBridge BEH C18 column (Waters; #186003033) using 0.1% Diethyl Amine in MeCN (mobile phase A; DEA CAS #109-89-7) and 0.1% Diethyl Amine in milli-Q water (mobile phase B) in a 3 min gradient allowing 25% B. Analytes were detected in negative mode using MRM analysis, with E2 having a RT of 1.85 min and E1 having a RT of 2 min. Activity of the enzyme, in the absence of NAD^+, was used to evaluate specificity of conversion. Enzyme activity in the presence of test samples was expressed as a percentage of the uninhibited enzyme activity, and plotted versus inhibitor concentration. Non-linear regression was performed using a four-parameter logistic model and GraphPad Prism software (GraphPad Software, La Jolla, Calif.). All assessments were undertaken in duplicate evaluations and pooled during extraction process and subsequently injected as duplicates for LC-MS/MS analysis.

With `O=C(Nc1cnccc1C(=O)NCc1ccccc1OC(F)(F)F)c1cc(Cl)c(O)c(Cl)c1` [Example 73, 3-(3,5-dichloro-4-hydroxybenzamido)-N-(2-(trifluoromethoxy)benzyl) isonicotinamide], the pIC50 (as a rule, the IC50 on a negative log10 scale, so that one unit is a factor of ten) was 6.30 to 7.00. Consider `Cc1nsc(NC(=O)c2cc(Cl)c(O)c(Cl)n2)c1C(=O)N[C@@H](C)c1ccccc1F` [Example 115, (S)-5-(4,6-dichloro-5-hydroxypicolinamido)-N-(1-(2-fluorophenyl)ethyl)-3-methylisothiazole-4-carboxamide], for which the pIC50 is 6.30 to 7.00.

`O=C(Nc1cccc2ncn(Cc3ccccc3C(F)(F)F)c(=O)c12)c1cc(Cl)c(O)c(Cl)n1` [Example 43, 4,6-dichloro-5-hydroxy-N-(4-oxo-3-(2-(trifluoromethyl)benzyl)-3,4-dihydroquinazolin-5-yl)picolinamide]: the pIC50 is not below 7.00. For `O=C(N[C@H]1CCCC[C@@H]1C(=O)NCc1ccccc1OC(F)(F)F)c1cc(Cl)c(O)c(Cl)n1` [Example 144, 4,6-dichloro-5-hydroxy-N-((1S, 2S)-2-((2-(trifluoromethoxy)benzyl)carbamoyl)cyclohexyl)picolinamide], the pIC50 is less than 5.00. The result for `O=C(Nc1cccc2ncn(Cc3ccncc3F)c(=O)c12)c1cc(Cl)c(O)c(Cl)c1` [Example 13, 3,5-dichloro-N-(3-((3-fluoropyridin-4-yl)methyl)-4-oxo-3,4-dihydroquinazolin-5-yl)-4-hydroxybenzamide] reads 6.00 to 6.30; that for `O=C(Nc1cccc2nc(C(F)(F)F)n(C3CC3c3ccccc3)c(=O)c12)c1cc(Cl)c(O)c(Cl)c1` (centres unmarked) [Example 116, 3,5-dichloro-4-hydroxy-N-(4-oxo-3-(2-phenylcyclopropyl)-2-(trifluoromethyl)-3,4-dihydroquinazolin-5-yl)benzamide], 6.30 to 7.00. Molecule `O=C(Nc1cccc2ncn(Cc3cc[nH]c(=O)c3)c(=O)c12)c1cc(Cl)c(O)c(Cl)c1` [Example 4, 3,5-dichloro-4-hydroxy-N-(3-((2-hydroxypyridin-4-yl)methyl)-4-oxo-3,4-dihydroquinazolin-5-yl)benzamide] showed a pIC50 of 5.00 to 6.00. The molecule `Cn1nc(CNC(=O)c2ncsc2NC(=O)c2cc(Cl)c(O)c(Cl)c2)c2ccccc21` [Example 188, 5-(3,5-dichloro-4-hydroxybenzamido)-N-((1-methyl-1H-indazol-3-yl)methyl)thiazole-4-carboxamide] gave a pIC50 not below 7.00. With `C[C@@H](c1cccc(F)c1)n1cnc2cccc(NC(=O)c3cc(Cl)c(O)c(Cl)n3)c2c1=O` [Example 41, 4,6-dichloro-N-{3-[(1S)-1-(3-fluorophenyl)ethyl]-4-oxo-3,4-dihydroquinazolin-5-yl}-5-hydroxypyridine-2-carboxamide], the pIC50 was not below 7.00.

Turning to `O=C(Nc1cccc2ncn(Cc3ccncc3)c(=O)c12)c1cc(Cl)c(O)c(Cl)c1` [Example 17, 3,5-dichloro-4-hydroxy-N-(4-oxo-3-(pyridin-4-ylmethyl)-3,4-dihydroquinazolin-5-yl)benzamide], the pIC50 was 5.00 to 6.00.

`Cn1ccc(-c2ccccc2Cn2cnc3cccc(NC(=O)c4cc(Cl)c(O)c(Cl)c4)c3c2=O)n1` [Example 105, 3,5-dichloro-4-hydroxy-N-(3-(2-(1-methyl-1H-pyrazol-3-yl)benzyl)-4-oxo-3,4-dihydroquinazolin-5-yl)benzamide]: the pIC50 was 6.30 to 7.00. `O=C(Nc1cccc2ncn(Cc3cccc(OC(F)(F)F)c3)c(=O)c12)c1cc(Cl)c(O)c(Cl)n1` [Example 49, 4,6-dichloro-5-hydroxy-N-(4-oxo-3-(3-(trifluoromethoxy)benzyl)-3,4-dihydroquinazolin-5-yl)picolinamide] had a pIC50 of 6.30 to 7.00. The result for `Cc1ccc(NC(=O)c2cc(Cl)c(O)c(Cl)n2)c2c(=O)n([C@@H]3CC[C@H]3c3ccccc3)c(C)nc12` [Example 202, 4,6-dichloro-N-(2,8-dimethyl-4-oxo-3-((1R,2S)-2-phenylcyclobutyl)-3,4-dihydroquinazolin-5-yl)-5-hydroxypicolinamide] reads 6.30 to 7.00; that for `O=C(Nc1ccc(F)c2ncn(Cc3ccccc3C(F)(F)F)c(=O)c12)c1cc(Cl)c(O)c(Cl)n1` [Example 206, 4,6-dichloro-N-(8-fluoro-4-oxo-3-(2-(trifluoromethyl)benzyl)-3,4-dihydroquinazolin-5-yl)-5-hydroxypicolinamide], not below 7.00.

Molecule `Cc1ccc(NC(=O)c2cc(Cl)c(O)c(Cl)c2)c2c(=O)n(Cc3ccccc3C(F)(F)F)c(CF)nc12` [Example 186, 3,5-dichloro-N-(2-(fluoromethyl)-8-methyl-4-oxo-3-(2-(trifluoromethyl)benzyl)-3,4-dihydroquinazolin-5-yl)-4-hydroxybenzamide] gave a pIC50 not below 7.00. The molecule `O=C(Nc1cccc2ncn(Cc3cccc(F)c3)c(=O)c12)c1cc(Cl)c(O)c(Cl)n1` [Example 22, 4,6-dichloro-N-{3-[(3-fluorophenyl)methyl]-4-oxo-3,4-dihydroquinazolin-5-yl}-5-hydroxypyridine-2-carboxamide] gave a pIC50 not below 7.00. The result for `Cc1ccc(NC(=O)c2cc(Cl)c(O)c(Cl)n2)c2c(=O)n(Cc3ccccc3OC(F)(F)F)c(C(F)F)nc12` [Example 160, 4,6-dichloro-N-(2-(difluoromethyl)-8-methyl-4-oxo-3-(2-(trifluoromethoxy)benzyl)-3,4-dihydroquinazolin-5-yl)-5-hydroxypicolinamide] reads not below 7.00; that for `Cc1nc2c(F)ccc(NC(=O)c3cc(Cl)c(O)c(Cl)n3)c2c(=O)n1Cc1nn(C)c2ccccc12` [Example 194, 4,6-dichloro-N-(8-fluoro-2-methyl-3-((1-methyl-1H-indazol-3-yl)methyl)-4-oxo-3,4-dihydroquinazolin-5-yl)-5-hydroxypicolinamide], 6.30 to 7.00. In the case of `O=C(Nc1cccc2ncn(Cc3ncccc3Cl)c(=O)c12)c1cc(Cl)c(O)c(Cl)c1` [Example 143, 3,5-dichloro-N-(3-((3-chloropyridin-2-yl)methyl)-4-oxo-3,4-dihydroquinazolin-5-yl)-4-hydroxybenzamide] it was not below 7.00; in that of `Cc1ccc(NC(=O)c2cc(Cl)c(O)c(Cl)c2)c2c(=O)n(Cc3ccccc3OC(F)(F)F)c(C)nc12` [Example 89, 3,5-dichloro-N-(2,8-dimethyl-4-oxo-3-(2-(trifluoromethoxy)benzyl)-3,4-dihydroquinazolin-5-yl)-4-hydroxybenzamide], not below 7.00. The result for `Cc1ccc(NC(=O)c2cc(Cl)c(O)c(Cl)n2)c2c(=O)n(Cc3ncccc3C(F)(F)F)c(C(F)F)nc12` [Example 177, 4,6-dichloro-N-(2-(difluoromethyl)-8-methyl-4-oxo-3-((3-(trifluoromethyl)pyridin-2-yl)methyl)-3,4-dihydroquinazolin-5-yl)-5-hydroxypicolinamide] reads 6.30 to 7.00. Molecule `Cc1ccc(NC(=O)c2cc(Cl)c(O)c(Cl)n2)c2c(=O)n(Cc3ncccc3F)c(C)nc12` [Example 195, 4,6-dichloro-N-(3-((3-fluoropyridin-2-yl)methyl)-2,8-dimethyl-4-oxo-3,4-dihydroquinazolin-5-yl)-5-hydroxypicolinamide] showed a pIC50 of 5.00 to 6.00. In the case of `Cc1ccc(NC(=O)c2cc(Cl)c(O)c(Cl)c2)c2c(=O)n(Cc3ncccc3C(F)(F)F)c(C(F)F)nc12` [Example 164, 3,5-dichloro-N-(2-(difluoromethyl)-8-methyl-4-oxo-3-((3-(trifluoromethyl)pyridin-2-yl)methyl)-3,4-dihydroquinazolin-5-yl)-4-hydroxybenzamide] it was 6.30 to 7.00; in that of `Cc1nc2c(F)ccc(NC(=O)c3cc(Cl)c(O)c(Cl)c3)c2c(=O)n1[C@H](C)c1ccccc1OC(F)(F)F` [Example 174, (R)-3,5-dichloro-N-(8-fluoro-2-methyl-4-oxo-3-(1-(2-(trifluoromethoxy)phenyl)ethyl)-3,4-dihydroquinazolin-5-yl)-4-hydroxybenzamide], 6.30 to 7.00; in that of `O=C(Nc1cccc2ncn(Cc3ccc(N4CCS(=O)(=O)CC4)cc3)c(=O)c12)c1cc(Cl)c(O)c(Cl)c1` [Example 63, 3,5-dichloro-N-(3-(4-(1,1-dioxidothiomorpholino)benzyl)-4-oxo-3,4-dihydroquinazolin-5-yl)-4-hydroxybenzamide], 6.30 to 7.00. In the case of `Cc1ccc(NC(=O)c2cc(Cl)c(O)c(Cl)c2)c2c(=O)n(Cc3ccccc3C(F)(F)F)c(C(F)F)nc12` [Example 167, 3,5-dichloro-N-(2-(difluoromethyl)-8-methyl-4-oxo-3-(2-(trifluoromethyl)benzyl)-3,4-dihydroquinazolin-5-yl)-4-hydroxybenzamide] it was not below 7.00.
